From patent US7833979B2, “Toxin peptide therapeutic agents” (Amgen Inc., priority 2005, dated 2010)
Entries after “also recorded” stand apart in the source; their conditions may differ. Where no end group is shown, it is not given here.

Tests used:
Assay type in all cases: cell-based
Kv1.3 = Kv1.3 (Homo sapiens, UniProt P22001); assay: Whole cell patch clamp electrophysiology on HEK293 cells stably expressing human Kv1.3; conditions: for Blockade of human Kv1.3 current (in words): patch clamp electrophysiology
Kv1.3, sequence (P22001 whole entry): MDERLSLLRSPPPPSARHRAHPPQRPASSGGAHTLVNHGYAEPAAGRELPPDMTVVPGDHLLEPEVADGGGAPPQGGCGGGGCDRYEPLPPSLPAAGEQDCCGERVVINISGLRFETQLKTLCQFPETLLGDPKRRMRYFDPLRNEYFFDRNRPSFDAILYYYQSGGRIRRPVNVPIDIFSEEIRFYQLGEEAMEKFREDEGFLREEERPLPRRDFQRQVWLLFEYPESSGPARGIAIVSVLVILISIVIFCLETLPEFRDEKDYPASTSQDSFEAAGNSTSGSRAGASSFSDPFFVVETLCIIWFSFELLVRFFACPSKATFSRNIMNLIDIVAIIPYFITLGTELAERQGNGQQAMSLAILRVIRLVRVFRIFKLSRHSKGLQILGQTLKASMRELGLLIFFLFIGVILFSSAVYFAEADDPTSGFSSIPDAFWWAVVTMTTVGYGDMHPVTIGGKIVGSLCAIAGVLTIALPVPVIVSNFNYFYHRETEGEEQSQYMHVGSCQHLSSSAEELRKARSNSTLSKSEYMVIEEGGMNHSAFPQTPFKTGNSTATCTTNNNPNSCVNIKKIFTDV

[1] = test system: upregulation of CD40L and IL-2R on CD4+ T cells in human whole blood; assay: Ex vivo human whole blood assay, thapsigargin-induced cell surface CD40L and IL-2R on T cells (FACS); conditions: 24 hours
[2] = test system: thapsigargin-induced IL-2 and IFN-g production in human whole blood; assay: Ex vivo human whole blood assay, thapsigargin-induced secretion of IL-2 and IFN-g; conditions: for Thapsigargin-induced IFN-g production in human whole blood / Thapsigargin-induced IL-2 production in human whole blood: two donors, 48 hours

| Substance | Blockade of human Kv1.3 current (in words) (Kv1.3) | Thapsigargin-induced upregulation of CD40L on T cells in human whole blood [1] | Thapsigargin-induced upregulation of the IL-2R on T cells in human whole blood [1] | Thapsigargin-induced IFN-g production in human whole blood [2] | Thapsigargin-induced IL-2 production in human whole blood [2] | Potency in blocking IL-2 production relative to cyclosporine A (by IC50) ([2]; human whole blood) | selectivity ratio hKv1.1/hKv1.3 (Kv1.3; ratio of hKv1.1 IC50 to hKv1.3 IC50) |
| --- | --- | --- | --- | --- | --- | --- | --- |
| PEG-ShK[2-35]: folded Des-Arg1-ShK N-terminally mono-PEGylated with 20 kDa MeO-PEG-aldehyde by reductive amination ({mPEG 20 kDa}-SCIDTIPKSRCTAFQCKHSMKYRLSFCRKTCGTC; disulfide (positions not given here); ends not checked; also: folded (disulfides not given here)) | active in blocking human Kv1.3 | – | – | – | – | – | – |
| iberiotoxin (QFTDVDCSVSKECWSVCKDLFGVDRGKCMGKKCRCYQ; BKCa peptide inhibitor sequence - IbTx) [reference compound] | – | no significant activity | no significant activity | no significant activity | no significant activity | – | – |
| Fc-L-KTX1: peptibody: Fc fused via linker to Kaliotoxin1 (KTX1, SEQ ID NO: 24) | blocked the human Kv1.3 current in a dose-dependent fashion | – | – | – | – | – | – |
| Fc-L10-ShK[2-35]: human IgG1 Fc fused via 10 amino acid linker to ShK[2-35]; SEQ ID NO: 81 | potently blocks human Kv1.3 current | blocked | blocked; also recorded: suppressing activation of the IL-2R | suppressed; also recorded: blocked | suppressed; also recorded: potently blocked IL-2 secretion | more than 200 times | – |
| dendrotoxin-K | – | no significant activity | no significant activity | – | – | – | – |
| Fc-L10-OSK1[E16K,K20D]: OSK1-peptibody with E16K and K20D substitutions; SEQ ID NO: 1045 | – | – | – | – | – | – | 403 |
